Assay results taken from PubChem BioAssay AID1963873 (Molecular Pharmacology Branch, DTP, NCI, 2024).

System: 276233-004-R-J1-PDC KRAS spheroids with HUVEC/MSC, viability
Assay: Anticancer human tumor 276233-004-R-J1-PDC patient-derived colon adenocarcinoma cell line growth inhibition [KRAS2]
Details: for IC50: curve of first compound; for viability, T/C: stronger effect = lower value
In short: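 Combination screen of spheroid viability in tumor-cell co-cultures with endothelial (HUVEC) and mesenchymal stem cell stroma. Each agent was tested in half-log dilutions, topping at clinical Cmax or at 10 microM without a known Cmax.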

[1] = second compound 0.1 µM, first compound 0.000316 µM
[2] = second compound 0.1 µM, first compound 0.001 µM
[3] = second compound 0.1 µM, first compound 0.00316 µM
[4] = second compound 0.1 µM, first compound 0.01 µM
[5] = second compound 0.1 µM, first compound 0.0316 µM
[6] = second compound 0.316 µM, first compound 0.000316 µM
[7] = second compound 0.316 µM, first compound 0.001 µM
[8] = second compound 0.316 µM, first compound 0.00316 µM
[9] = second compound 0.316 µM, first compound 0.01 µM
[10] = second compound 0.316 µM, first compound 0.0316 µM
[11] = second compound 1 µM, first compound 0.000316 µM
[12] = second compound 1 µM, first compound 0.001 µM
[13] = second compound 1 µM, first compound 0.00316 µM
[14] = second compound 1 µM, first compound 0.01 µM
[15] = second compound 1 µM, first compound 0.0316 µM
[16] = second compound 3.16 µM, first compound 0.000316 µM
[17] = second compound 3.16 µM, first compound 0.001 µM
[18] = second compound 3.16 µM, first compound 0.00316 µM
[19] = second compound 3.16 µM, first compound 0.01 µM
[20] = second compound 3.16 µM, first compound 0.0316 µM
[21] = second compound 10 µM, first compound 0.000316 µM
[22] = second compound 10 µM, first compound 0.001 µM
[23] = second compound 10 µM, first compound 0.00316 µM
[24] = second compound 10 µM, first compound 0.01 µM
[25] = second compound 10 µM, first compound 0.0316 µM
[26] = second compound 0.1 µM, first compound 0.1 µM
[27] = second compound 0.316 µM, first compound 0.1 µM
[28] = second compound 1 µM, first compound 0.1 µM
[29] = second compound 3.16 µM, first compound 0.1 µM
[30] = second compound 10 µM, first compound 0.1 µM
[31] = second compound 0.1 µM, first compound 0.316 µM
[32] = second compound 0.1 µM, first compound 1 µM
[33] = second compound 0.1 µM, first compound 3.16 µM
[34] = second compound 0.1 µM, first compound 10 µM
[35] = second compound 0.316 µM, first compound 0.316 µM
[36] = second compound 0.316 µM, first compound 1 µM
[37] = second compound 0.316 µM, first compound 3.16 µM
[38] = second compound 0.316 µM, first compound 10 µM
[39] = second compound 1 µM, first compound 0.316 µM
[40] = second compound 1 µM, first compound 1 µM
[41] = second compound 1 µM, first compound 3.16 µM
[42] = second compound 1 µM, first compound 10 µM
[43] = second compound 3.16 µM, first compound 0.316 µM
[44] = second compound 3.16 µM, first compound 1 µM
[45] = second compound 3.16 µM, first compound 3.16 µM
[46] = second compound 3.16 µM, first compound 10 µM
[47] = second compound 10 µM, first compound 0.316 µM
[48] = second compound 10 µM, first compound 1 µM
[49] = second compound 10 µM, first compound 3.16 µM
[50] = second compound 10 µM, first compound 10 µM
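Note: cells exposed to agents for seven days before viability read.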
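Throughout, for viability, T/C: 100% = DMSO vehicle control wells and lower values mean fewer viable cells.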

## CC(=O)Nc1cccc(-n2c(=O)n(C3CC3)c(=O)c3c(Nc4ccc(I)cc4F)n(C)c(=O)c(C)c32)c1 + CNCc1ccccc1-c1csc(C(C)Nc2nc(C)nc3cc(OC)c(OC)cc23)c1
Second compound 0.1 µM
  IC50: 0.00593 µM
Second compound 0.316 µM
  IC50: 0.00486 µM
Second compound 1 µM
  IC50: 0.00142 µM
Second compound 3.16 µM
  IC50: < 0.0001 µM
Second compound 10 µM
  IC50: < 0.0001 µM
Second compound 0.1 µM, first compound 0.0001 µM
  viability, T/C: 97.3%
[1]
  viability, T/C: 77.5%
[2]
  viability, T/C: 90.5%
[3]
  viability, T/C: 59.2%
[4]
  viability, T/C: 40.1%
[5]
  viability, T/C: 15.5%
Second compound 0.316 µM, first compound 0.0001 µM
  viability, T/C: 93.5%
[6]
  viability, T/C: 82.1%
[7]
  viability, T/C: 83.7%
[8]
  viability, T/C: 57%
[9]
  viability, T/C: 35.2%
[10]
  viability, T/C: 17.3%
Second compound 1 µM, first compound 0.0001 µM
  viability, T/C: 69.4%
[11]
  viability, T/C: 56.5%
[12]
  viability, T/C: 61.1%
[13]
  viability, T/C: 27.6%
[14]
  viability, T/C: 23.1%
[15]
  viability, T/C: 9.49%
Second compound 3.16 µM, first compound 0.0001 µM
  viability, T/C: 5.56%
[16]
  viability, T/C: 0.89%
[17]
  viability, T/C: 3.86%
[18]
  viability, T/C: 1.97%
[19]
  viability, T/C: 0.56%
[20]
  viability, T/C: 0.49%
Second compound 10 µM, first compound 0.0001 µM
  viability, T/C: 0.21%
[21]
  viability, T/C: 2.92%
[22]
  viability, T/C: 4.6%
[23]
  viability, T/C: 3.3%
[24]
  viability, T/C: 0.22%
[25]
  viability, T/C: 3.97%

## CC(C)n1nc(-c2ccc3oc(N)nc3c2)c2c(N)ncnc21 + CNCc1ccccc1-c1csc(C(C)Nc2nc(C)nc3cc(OC)c(OC)cc23)c1
Second compound 0.1 µM
  IC50: 0.0428 µM
Second compound 0.316 µM
  IC50: 0.0901 µM
Second compound 1 µM
  IC50: 0.00683 µM
Second compound 3.16 µM
  IC50: < 0.000316 µM
Second compound 10 µM
  IC50: < 0.000316 µM
[1]
  viability, T/C: 88.7%
[2]
  viability, T/C: 76.2%
[3]
  viability, T/C: 66.1%
[4]
  viability, T/C: 59.5%
[5]
  viability, T/C: 53.2%
[26]
  viability, T/C: 44.4%
[6]
  viability, T/C: 82.3%
[7]
  viability, T/C: 70.7%
[8]
  viability, T/C: 66.2%
[9]
  viability, T/C: 55.5%
[10]
  viability, T/C: 45%
[27]
  viability, T/C: 54.5%
[11]
  viability, T/C: 57.9%
[12]
  viability, T/C: 63.7%
[13]
  viability, T/C: 60.5%
[14]
  viability, T/C: 39.6%
[15]
  viability, T/C: 43.2%
[28]
  viability, T/C: 51.6%
[16]
  viability, T/C: 0.56%
[17]
  viability, T/C: 0.43%
[18]
  viability, T/C: 0.72%
[19]
  viability, T/C: 0.43%
[20]
  viability, T/C: 1.9%
[29]
  viability, T/C: 0.88%
[21]
  viability, T/C: 0.94%
[22]
  viability, T/C: 0.17%
[23]
  viability, T/C: 1.02%
[24]
  viability, T/C: 0.26%
[25]
  viability, T/C: 0.21%
[30]
  viability, T/C: 0.37%

## COc1cc(Nc2ncc3c(n2)-c2ccc(Cl)cc2C(c2c(F)cccc2OC)=NC3)ccc1C(=O)O + CNCc1ccccc1-c1csc(C(C)Nc2nc(C)nc3cc(OC)c(OC)cc23)c1
Second compound 0.1 µM
  IC50: > 10 µM
Second compound 0.316 µM
  IC50: > 10 µM
Second compound 1 µM
  IC50: > 10 µM
Second compound 3.16 µM
  IC50: < 0.0316 µM
Second compound 10 µM
  IC50: < 0.0316 µM
[5]
  viability, T/C: 103%
[26]
  viability, T/C: 110%
[31]
  viability, T/C: 75.7%
[32]
  viability, T/C: 104%
[33]
  viability, T/C: 95.7%
[34]
  viability, T/C: 84.2%
[10]
  viability, T/C: 107%
[27]
  viability, T/C: 93%
[35]
  viability, T/C: 99.1%
[36]
  viability, T/C: 97.7%
[37]
  viability, T/C: 91.9%
[38]
  viability, T/C: 94.6%
[15]
  viability, T/C: 80.4%
[28]
  viability, T/C: 86.1%
[39]
  viability, T/C: 111%
[40]
  viability, T/C: 85%
[41]
  viability, T/C: 72.1%
[42]
  viability, T/C: 66.3%
[20]
  viability, T/C: 5.21%
[29]
  viability, T/C: 1.97%
[43]
  viability, T/C: 1.67%
[44]
  viability, T/C: 4.48%
[45]
  viability, T/C: 4.94%
[46]
  viability, T/C: 0.76%
[25]
  viability, T/C: 2.44%
[30]
  viability, T/C: 3.58%
[47]
  viability, T/C: 0.22%
[48]
  viability, T/C: 0.22%
[49]
  viability, T/C: 0.73%
[50]
  viability, T/C: 0.99%

## COc1cc2nccc(Oc3ccc(NC(=O)C4(C(=O)Nc5ccc(F)cc5)CC4)cc3)c2cc1OC + CNCc1ccccc1-c1csc(C(C)Nc2nc(C)nc3cc(OC)c(OC)cc23)c1
Second compound 0.1 µM
  IC50: > 10 µM
Second compound 0.316 µM
  IC50: > 10 µM
Second compound 1 µM
  IC50: 0.595 µM
Second compound 3.16 µM
  IC50: < 0.0316 µM
Second compound 10 µM
  IC50: < 0.0316 µM
[5]
  viability, T/C: 82.3%
[26]
  viability, T/C: 109%
[31]
  viability, T/C: 82.8%
[32]
  viability, T/C: 88.3%
[33]
  viability, T/C: 80.9%
[34]
  viability, T/C: 88.2%
[10]
  viability, T/C: 83.3%
[27]
  viability, T/C: 85%
[35]
  viability, T/C: 85.8%
[36]
  viability, T/C: 109%
[37]
  viability, T/C: 83.2%
[38]
  viability, T/C: 67.2%
[15]
  viability, T/C: 74.8%
[28]
  viability, T/C: 58.8%
[39]
  viability, T/C: 68.7%
[40]
  viability, T/C: 35.6%
[41]
  viability, T/C: 15%
[42]
  viability, T/C: 41.5%
[20]
  viability, T/C: 0.61%
[29]
  viability, T/C: 2.67%
[43]
  viability, T/C: 0.63%
[44]
  viability, T/C: 0.45%
[45]
  viability, T/C: 0.77%
[46]
  viability, T/C: 0.33%
[25]
  viability, T/C: 0.64%
[30]
  viability, T/C: 0.19%
[47]
  viability, T/C: 0.57%
[48]
  viability, T/C: 0.15%
[49]
  viability, T/C: 0.14%
[50]
  viability, T/C: 1.46%
